1 compound from PMC5218480 (PLoS ONE, 2017) can be followed below.

The assay deals with MV-4-11 cells. Kind of assay: Gene expression microarray analysis (Affymetrix PrimeView) and GSEA. It counts as cell-based, human. Further details: RFU PODN (11730768_x_at) / Fold change /veh PODN (11730768_x_at) / RFU LINC00158 (11744669_a_at) / Fold change /veh LINC00158 (11744669_a_at) / RFU DUSP10 (11751237_a_at) / Fold change /veh DUSP10 (11751237_a_at) / RFU ID3 (11757404_x_at) / Fold change /veh ID3 (11757404_x_at) / RFU PLEKHG5 (11737974_s_at) / Fold change /veh PLEKHG5 (11737974_s_at) / RFU LRRC4B (11730491_at) / Fold change /veh LRRC4B (11730491_at) / RFU GIMAP4 (11747438_a_at) / Fold change /veh GIMAP4 (11747438_a_at) / RFU KRT8 (11758183_x_at) / Fold change /veh KRT8 (11758183_x_at) / RFU CNN1 (11734310_a_at) / Fold change /veh CNN1 (11734310_a_at) / RFU VPS37D (11726825_at) / Fold change /veh VPS37D (11726825_at) / RFU C10orf10 (11716522_x_at) / Fold change /veh C10orf10 (11716522_x_at) / RFU KIR2DL2 /// KIR2DL4 /// KIR2DL5A /// KIR2DL5B /// KIR2DS1 /// KIR2DS2 /// KIR2DS3 /// KIR2DS4 /// KIR3DL3 /// KIR3DL3 /// KIR3DS1 (11738374_at) / Fold change /veh KIR2DL2 /// KIR2DL4 /// KIR2DL5A /// KIR2DL5B /// KIR2DS1 /// KIR2DS2 /// KIR2DS3 /// KIR2DS4 /// KIR3DL3 /// KIR3DL3 /// KIR3DS1 (11738374_at) / RFU C1QL1 (11718748_at) / Fold change /veh C1QL1 (11718748_at) / RFU TMPRSS4 (11747572_a_at) / Fold change /veh TMPRSS4 (11747572_a_at) / RFU HAMP (11756126_x_at) / Fold change /veh HAMP (11756126_x_at) / RFU RNFT2 (11725882_a_at) / Fold change /veh RNFT2 (11725882_a_at) / RFU NR4A2 (11747474_a_at) / Fold change /veh NR4A2 (11747474_a_at) / RFU ABCC12 (11746883_a_at) / Fold change /veh ABCC12 (11746883_a_at) / RFU TMEM136 (11760407_x_at) / Fold change /veh TMEM136 (11760407_x_at) / RFU CLDN22 /// WWC2 (11732394_at) / Fold change /veh CLDN22 /// WWC2 (11732394_at) / RFU HLA-DPB1 (11760878_x_at) / Fold change /veh HLA-DPB1 (11760878_x_at) / RFU SPINT1 (11716480_a_at) / Fold change /veh SPINT1 (11716480_a_at) / RFU GAP43 (11754022_s_at) / Fold change /veh GAP43 (11754022_s_at) / RFU A4GNT (11735810_at) / Fold change /veh A4GNT (11735810_at) / RFU PRB3 (11715151_x_at) / Fold change /veh PRB3 (11715151_x_at) / RFU TUBB4B (11761932_at) / Fold change /veh TUBB4B (11761932_at) / RFU CAPN14 (11732068_a_at) / Fold change /veh CAPN14 (11732068_a_at) / RFU TMCC2 (11721928_a_at) / Fold change /veh TMCC2 (11721928_a_at) / RFU IRGQ (11745062_a_at) / Fold change /veh IRGQ (11745062_a_at) / RFU FAM174B (11720279_a_at) / Fold change /veh FAM174B (11720279_a_at) / RFU TMPRSS4 (11748680_a_at) / Fold change /veh TMPRSS4 (11748680_a_at) / RFU FAM212B (11763350_a_at) / Fold change /veh FAM212B (11763350_a_at) / RFU PLEKHG5 (11743358_a_at) / Fold change /veh PLEKHG5 (11743358_a_at) / RFU ZSCAN30 (11745921_a_at) / Fold change /veh ZSCAN30 (11745921_a_at) / RFU CMKLR1 (11741424_a_at) / Fold change /veh CMKLR1 (11741424_a_at) / RFU LOC101060620 /// MAPK8IP1 (11723275_at) / Fold change /veh LOC101060620 /// MAPK8IP1 (11723275_at) / RFU SPTSSB (11747773_x_at) / Fold change /veh SPTSSB (11747773_x_at) / RFU PRSS12 (11739890_at) / Fold change /veh PRSS12 (11739890_at) / RFU BIN1 (11741810_x_at) / Fold change /veh BIN1 (11741810_x_at) / RFU WNT11 (11732464_a_at) / Fold change /veh WNT11 (11732464_a_at) / RFU C10orf10 (11716521_a_at) / Fold change /veh C10orf10 (11716521_a_at) / RFU C5orf56 (11738089_at) / Fold change /veh C5orf56 (11738089_at) / RFU CYB561 (11721691_x_at) / Fold change /veh CYB561 (11721691_x_at) / RFU ANKRD19P (11752326_a_at) / Fold change /veh ANKRD19P (11752326_a_at) / RFU OR2T12 /// OR2T33 /// OR2T8 (11738714_s_at) / Fold change /veh OR2T12 /// OR2T33 /// OR2T8 (11738714_s_at) / RFU VCAN (11748164_a_at) / Fold change /veh VCAN (11748164_a_at) / RFU JSRP1 (11732532_at) / Fold change /veh JSRP1 (11732532_at) / RFU KRTAP10-11 (11738290_x_at) / Fold change /veh KRTAP10-11 (11738290_x_at) / RFU MYO3A (11730013_a_at) / Fold change /veh MYO3A (11730013_a_at) / RFU EBF3 (11725865_a_at) / Fold change /veh EBF3 (11725865_a_at) / RFU CAMK2N1 (11719241_x_at) / Fold change /veh CAMK2N1 (11719241_x_at) / RFU C5orf56 (11738088_a_at) / Fold change /veh C5orf56 (11738088_a_at) / RFU OLFML3 (11715873_a_at) / Fold change /veh OLFML3 (11715873_a_at) / RFU LOC100653217 /// NTM (11731650_a_at) / Fold change /veh LOC100653217 /// NTM (11731650_a_at) / RFU MAPK11 (11762145_a_at) / Fold change /veh MAPK11 (11762145_a_at) / RFU FIZ1 (11724087_x_at) / Fold change /veh FIZ1 (11724087_x_at) / RFU OASL (11726364_x_at) / Fold change /veh OASL (11726364_x_at) / RFU SOX15 (11748057_x_at) / Fold change /veh SOX15 (11748057_x_at) / RFU CD79A (11719716_a_at) / Fold change /veh CD79A (11719716_a_at) / RFU HIST1H1D (11736915_at) / Fold change /veh HIST1H1D (11736915_at) / RFU CASKIN2 (11723855_a_at) / Fold change /veh CASKIN2 (11723855_a_at) / RFU LOC730098 (11760151_x_at) / Fold change /veh LOC730098 (11760151_x_at) / RFU OR4N2 (11742367_at) / Fold change /veh OR4N2 (11742367_at) / RFU PRRT2 (11749266_a_at) / Fold change /veh PRRT2 (11749266_a_at) / RFU SNX32 (11753110_a_at) / Fold change /veh SNX32 (11753110_a_at) / RFU CDHR5 (11726645_a_at) / Fold change /veh CDHR5 (11726645_a_at) / RFU RCAN1 (11760418_a_at) / Fold change /veh RCAN1 (11760418_a_at) / RFU FAM167A (11723789_a_at) / Fold change /veh FAM167A (11723789_a_at) / RFU FAM26E (11764081_at) / Fold change /veh FAM26E (11764081_at) / RFU ISYNA1 (11749810_s_at) / Fold change /veh ISYNA1 (11749810_s_at) / RFU ACY1 (11761880_at) / Fold change /veh ACY1 (11761880_at) / RFU 11764098_at / Fold change /veh 11764098_at / RFU SAMD14 (11745864_x_at) / Fold change /veh SAMD14 (11745864_x_at) / RFU NPB (11741838_a_at) / Fold change /veh NPB (11741838_a_at) / RFU TMPRSS6 (11731388_a_at) / Fold change /veh TMPRSS6 (11731388_a_at) / RFU KRTAP10-2 (11738614_at) / Fold change /veh KRTAP10-2 (11738614_at) / RFU ARHGAP8 /// PRR5-ARHGAP8 (11727945_x_at) / Fold change /veh ARHGAP8 /// PRR5-ARHGAP8 (11727945_x_at) / RFU KRTAP5-7 /// NADSYN1 (11734609_at) / Fold change /veh KRTAP5-7 /// NADSYN1 (11734609_at) / RFU RASL12 (11751679_a_at) / Fold change /veh RASL12 (11751679_a_at) / RFU CDKN2B (11736163_a_at) / Fold change /veh CDKN2B (11736163_a_at) / RFU PRF1 (11729649_at) / Fold change /veh PRF1 (11729649_at) / RFU, ZNF638 /// ZNF638-IT1 / Fold change vs veh, ZNF638 /// ZNF638-IT1 / RFU, PANK3 / Fold change vs veh, PANK3 / RFU, SH3YL1 / Fold change vs veh, SH3YL1 / RFU, ZEB2 / Fold change vs veh, ZEB2 / RFU, NRIP1 / Fold change vs veh, NRIP1 / RFU, PTTG1IP / Fold change vs veh, PTTG1IP / RFU, CAPN2 / Fold change vs veh, CAPN2 / RFU, MED14 / Fold change vs veh, MED14 / RFU, SNORA58 / Fold change vs veh, SNORA58 / RFU, C1orf63 / Fold change vs veh, C1orf63 / RFU, LRRFIP1 / Fold change vs veh, LRRFIP1 / RFU, NDUFAF7 / Fold change vs veh, NDUFAF7 / RFU, SLC12A2 / Fold change vs veh, SLC12A2 / RFU, IBTK / Fold change vs veh, IBTK / RFU, ESF1 / Fold change vs veh, ESF1 / Fold change vs veh, TMEM50B / RFU, TAOK1 / Fold change vs veh, TAOK1 / RFU, ACBD3 / Fold change vs veh, ACBD3 / RFU, TMA16 / Fold change vs veh, TMA16 / RFU, RWDD3 / Fold change vs veh, RWDD3 / RFU, BCAT1 / Fold change vs veh, BCAT1 / RFU, EDEM3 / Fold change vs veh, EDEM3 / RFU, TMEM33 / Fold change vs veh, TMEM33 / RFU, WDR75 / Fold change vs veh, WDR75 / RFU, AHCTF1 / Fold change vs veh, AHCTF1 / RFU, TFRC / Fold change vs veh, TFRC / RFU, ZDHHC17 / Fold change vs veh, ZDHHC17 / RFU, NOM1 / Fold change vs veh, NOM1 / RFU, ARL8B / Fold change vs veh, ARL8B / RFU, ZBTB11 / Fold change vs veh, ZBTB11 / RFU, TAMM41 / Fold change vs veh, TAMM41 / RFU, KIAA1704 /// LOC100996395 / Fold change vs veh, KIAA1704 /// LOC100996395 / RFU, ING1 / Fold change vs veh, ING1 / RFU, TRMT61B / Fold change vs veh, TRMT61B / RFU, FUBP3 / Fold change vs veh, FUBP3 / RFU, TP53 / Fold change vs veh, TP53 / RFU, TNKS2 / Fold change vs veh, TNKS2 / RFU, ZFP14 / Fold change vs veh, ZFP14 / RFU, ACTR2 / Fold change vs veh, ACTR2 / RFU, PPP3R1 / Fold change vs veh, PPP3R1 / RFU, PIK3R1 / Fold change vs veh, PIK3R1 / RFU, HNRNPA1 / Fold change vs veh, HNRNPA1 / RFU, RNF170 / Fold change vs veh, RNF170 / RFU, ZNF28 / Fold change vs veh, ZNF28 / RFU, RNGTT / Fold change vs veh, RNGTT / RFU, OGT / Fold change vs veh, OGT / RFU, BRD1 / Fold change vs veh, BRD1 / RFU, MARS / Fold change vs veh, MARS / RFU, ZNF655 / Fold change vs veh, ZNF655 / RFU, FAHD1 / Fold change vs veh, FAHD1 / RFU, BDP1 / Fold change vs veh, BDP1 / RFU, LRRCC1 / Fold change vs veh, LRRCC1 / RFU, ARID1A / Fold change vs veh, ARID1A / RFU, ZNF146 / Fold change vs veh, ZNF146 / RFU, ZNF330 / Fold change vs veh, ZNF330 / RFU, GPN3 / Fold change vs veh, GPN3 / RFU, C9orf123 / Fold change vs veh, C9orf123 / RFU, N4BP2L2 / Fold change vs veh, N4BP2L2 / RFU, ARFIP1 / Fold change vs veh, ARFIP1 / RFU, FAM179B / Fold change vs veh, FAM179B / RFU, BCL10 / Fold change vs veh, BCL10 / RFU, UHRF1BP1L / Fold change vs veh, UHRF1BP1L / RFU, BET1 / Fold change vs veh, BET1 / RFU, CNOT2 / Fold change vs veh, CNOT2 / RFU, ZNF268 / Fold change vs veh, ZNF268 / Fold change vs veh, ZNF507 / RFU, DGCR2 / Fold change vs veh, DGCR2 / RFU, WDSUB1 / Fold change vs veh, WDSUB1 / Fold change vs veh, HSP90B1 /// MIR3652 / RFU, ADSS / Fold change vs veh, ADSS / RFU, GK / Fold change vs veh, GK / RFU, ZNF148 / Fold change vs veh, ZNF148 / RFU, TAF9 / Fold change vs veh, TAF9 / RFU, SLC1A5 / Fold change vs veh, SLC1A5 / RFU, SLMO2 / Fold change vs veh, SLMO2 / RFU, ABCC4 / Fold change vs veh, ABCC4 / RFU, LOC101060439 /// RAP1B / Fold change vs veh, LOC101060439 /// RAP1B / RFU, RFX7 / Fold change vs veh, RFX7 / RFU, GTPBP10 / Fold change vs veh, GTPBP10 / RFU, CNEP1R1 / Fold change vs veh, CNEP1R1 / RFU, BIVM-ERCC5 /// ERCC5 / Fold change vs veh, BIVM-ERCC5 /// ERCC5 / RFU, ILF3 / Fold change vs veh, ILF3 / RFU 11762660_at / Fold change /veh 11762660_at / RFU VCAN (11757783_s_at) / Fold change /veh VCAN (11757783_s_at) / RFU DDX43 (11728927_at) / Fold change /veh DDX43 (11728927_at) / RFU KRT8 (11758188_x_at) / Fold change /veh KRT8 (11758188_x_at) / RFU NKD1 (11759106_at) / Fold change /veh NKD1 (11759106_at) / RFU SRD5A1 (11742802_a_at) / Fold change /veh SRD5A1 (11742802_a_at) / RFU TPSAB1 /// TPSB2 (11721975_s_at) / Fold change /veh TPSAB1 /// TPSB2 (11721975_s_at) / RFU GSTM3 (11746129_a_at) / Fold change /veh GSTM3 (11746129_a_at) / RFU IL23R (11737362_x_at) / Fold change /veh IL23R (11737362_x_at) / RFU TMEM51 (11727254_a_at) / Fold change /veh TMEM51 (11727254_a_at) / RFU PIWIL2 (11732686_x_at) / Fold change /veh PIWIL2 (11732686_x_at) / RFU ORM1 (11744905_x_at) / Fold change /veh ORM1 (11744905_x_at) / RFU CCDC152 (11743942_at) / Fold change /veh CCDC152 (11743942_at) / RFU ECM1 (11717891_a_at) / Fold change /veh ECM1 (11717891_a_at) / RFU IL23R (11748794_a_at) / Fold change /veh IL23R (11748794_a_at) / RFU TNFAIP8L3 (11732012_x_at) / Fold change /veh TNFAIP8L3 (11732012_x_at) / RFU MBOAT4 (11741988_at) / Fold change /veh MBOAT4 (11741988_at) / RFU 11764193_at / Fold change /veh 11764193_at / RFU TMEM53 (11763286_at) / Fold change /veh TMEM53 (11763286_at) / RFU MAGEB2 (11727129_at) / Fold change /veh MAGEB2 (11727129_at) / RFU TMEM200A (11744735_a_at) / Fold change /veh TMEM200A (11744735_a_at) / RFU CCDC152 (11751479_a_at) / Fold change /veh CCDC152 (11751479_a_at) / RFU FAM211A (11726209_a_at) / Fold change /veh FAM211A (11726209_a_at) / RFU RGS16 (11746705_a_at) / Fold change /veh RGS16 (11746705_a_at) / RFU VCAN (11755009_s_at) / Fold change /veh VCAN (11755009_s_at) / RFU RHOB (11743442_s_at) / Fold change /veh RHOB (11743442_s_at) / RFU RGS16 (11720943_a_at) / Fold change /veh RGS16 (11720943_a_at) / RFU RGS16 (11720944_at) / Fold change /veh RGS16 (11720944_at) / RFU, VPS4B / Fold change vs veh, VPS4B / RFU, CREB1 / Fold change vs veh, CREB1 / RFU, DNAJC13 / Fold change vs veh, DNAJC13 / RFU, GNAQ / Fold change vs veh, GNAQ / RFU, CDK5R1 / Fold change vs veh, CDK5R1 / RFU, ZRANB3 / Fold change vs veh, ZRANB3 / RFU, CUL4A / Fold change vs veh, CUL4A / RFU, CCNY / Fold change vs veh, CCNY / RFU, UFL1 / Fold change vs veh, UFL1 / RFU, COG3 / Fold change vs veh, COG3 / RFU, DIAPH2 / Fold change vs veh, DIAPH2 / RFU, SKA2 / Fold change vs veh, SKA2 / RFU, AFF3 / Fold change vs veh, AFF3 / RFU, LMF1 / Fold change vs veh, LMF1 / RFU, IPO11 / Fold change vs veh, IPO11 / RFU, DFFB / Fold change vs veh, DFFB / RFU, FOXP1 / Fold change vs veh, FOXP1 / RFU, CARD8 / Fold change vs veh, CARD8 / RFU, STRN3 / Fold change vs veh, STRN3 / RFU, ADK / Fold change vs veh, ADK / RFU, RASSF2 / Fold change vs veh, RASSF2 / RFU, WIPF1 / Fold change vs veh, WIPF1 / RFU, LARP1B / Fold change vs veh, LARP1B / RFU, RASA1 / Fold change vs veh, RASA1 / RFU, RB1 / Fold change vs veh, RB1 / RFU, PPFIA1 / Fold change vs veh, PPFIA1 / RFU, MAT2A / Fold change vs veh, MAT2A / RFU, CCT5 / Fold change vs veh, CCT5 / RFU, WDR92 / Fold change vs veh, WDR92 / RFU, CUX1 / Fold change vs veh, CUX1 / RFU, TTC7A / Fold change vs veh, TTC7A / RFU, TMEM135 / Fold change vs veh, TMEM135 / RFU, DEPTOR / Fold change vs veh, DEPTOR / RFU, CPM / Fold change vs veh, CPM / RFU, DNAJB6 / Fold change vs veh, DNAJB6 / RFU, CACNA2D3 / Fold change vs veh, CACNA2D3 / RFU, DTX4 / Fold change vs veh, DTX4 / RFU, TFCP2 / Fold change vs veh, TFCP2 / RFU, GMCL1 /// GMCL1P1 / Fold change vs veh, GMCL1 /// GMCL1P1 / RFU, AEBP2 / Fold change vs veh, AEBP2 / RFU, SNHG1 /// SNORD22 /// SNORD25 /// SNORD26 /// SNORD27 /// SNORD28 /// SNORD29 /// SNORD31 / Fold change vs veh, SNHG1 /// SNORD22 /// SNORD25 /// SNORD26 /// SNORD27 /// SNORD28 /// SNORD29 /// SNORD31 / Fold change (Aza/veh), C12orf56 (ProbeSet 11735607_a_at) / Fold change (ACY-1035/veh), C12orf56 (ProbeSet 11735607_a_at) / Fold change (Aza/veh), FGFR1OP (ProbeSet 11751329_s_at) / Fold change (ACY-1035/veh), FGFR1OP (ProbeSet 11751329_s_at) / Fold change (Aza/veh), VPS36 (ProbeSet 11739960_a_at) / Fold change (ACY-1035/veh), VPS36 (ProbeSet 11739960_a_at) / RFU SYPL1 (11715823_x_at) / Fold change /veh SYPL1 (11715823_x_at) / RFU IGFBP7 (11715501_s_at) / Fold change /veh IGFBP7 (11715501_s_at) / RFU REEP3 (11722064_at) / Fold change /veh REEP3 (11722064_at) / RFU IGLL1 (11728026_x_at) / Fold change /veh IGLL1 (11728026_x_at): dose or concentration left out as unconfirmed. The conditions noted are these: MV-4-11 cells, 48 hours.

Molecules are shown by their SMILES.

As to `Nc1ccc(-c2cccs2)cc1NC(=O)c1ccc2c(c1)cc(C1CC1)n2CCN1CCOCC1` [ACY-1035], the “RFU ABCC12 (11746883_a_at)” value was 8.23 RFU.
